Values joined by “and” are separate entries in the source; they are usually repeats but may differ in a detail not shown here. Identical values can stand only once.
Columns and labels:
NCI-H358 (K-Ras G12C) = assay: CellTiter-Glo cell viability assay, 5-day treatment; assay type: cell-based; settings: Homo sapiens, NCI-H358, 120 h, 5-day treatment; read-out: H358 Cell Viability assay data (K-Ras G12C, IC50)
Method in brief: (§1)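 Five-day compound treatment of plated cells; luminescent read after ~30 min at RT. Percent-of-DMSO data fit to a four-parameter logistic model.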

Capan-1 (K-Ras G12V) = assay: as above; assay type: cell-based; settings: Homo sapiens, CAPAN-1, 120 h, 5-day treatment; read-out: Capan-1 Cell Viability assay data (K-Ras G12V, IC50)
Method in brief: as §1

NRAS G12C = NRAS G12C (Homo sapiens, UniProt P01111+P62937, G12C); assay: Disruption of BRAF RBD interaction with Ras (FRET / MOA assay, with Cyclophilin A); assay type: biochemical; settings: NRAS G12C; read-out: NRAS G12C FRET data IC50
KRAS G13C = KRAS G13C (Homo sapiens, UniProt P01116+P62937, G13C); assay: as above; assay type: biochemical; settings: read-out: KRAS G13C FRET data, IC50
Method in brief: (§2)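 TR-FRET: nucleotide-loaded K-Ras mutant or WT with Cyclophilin A and BRAF RBD, compound 10-point 3-fold from 30 μM final, 3 h at 25° C, then anti-His Eu (10 nM) and anti-GST APC (50 nM) for 1.5 h. Decreased FRET ratio versus DMSO gives IC50.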

KRAS G12V = KRAS G12V (Homo sapiens, UniProt P01116+P62937, G12V); assay: as above; assay type: biochemical; settings: KRAS G12V; read-out: KRAS G12V FRET data IC50
Method in brief: as §2

KRAS G12S = KRAS G12S (Homo sapiens, UniProt P01116+P62937, G12S); assay: as above; assay type: biochemical; settings: read-out: KRAS G12S FRET data, IC50
Method in brief: as §2

KRAS G13D = KRAS G13D (Homo sapiens, UniProt P01116+P62937, G13D); assay: as above; assay type: biochemical; settings: KRAS G13D; read-out: KRAS G13D FRET data IC50
Method in brief: as §2

KRAS WT = KRAS WT (Homo sapiens, UniProt P01116+P62937); assay: as above; assay type: biochemical; settings: KRAS WT; read-out: KRAS WT FRET data IC50
Method in brief: as §2

KRAS G12D = KRAS G12D (Homo sapiens, UniProt P01116+P62937, G12D); assay: as above; assay type: biochemical; settings: read-out: KRAS G12D FRET data, IC50
Method in brief: as §2

KRAS G12C = KRAS G12C (Homo sapiens, UniProt P01116+P62937, G12C); assay: as above; assay type: biochemical; settings: read-out: KRAS G12C FRET data, IC50
Method in brief: as §2

Sequence of KRAS WT (P01116 1-169 isoform P01116-2 limits assumed): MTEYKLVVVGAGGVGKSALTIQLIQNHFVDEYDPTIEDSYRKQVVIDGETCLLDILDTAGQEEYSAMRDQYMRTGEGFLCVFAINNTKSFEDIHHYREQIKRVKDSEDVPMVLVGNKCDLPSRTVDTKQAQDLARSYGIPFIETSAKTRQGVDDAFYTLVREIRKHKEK
Sequence of KRAS WT (P62937 whole entry): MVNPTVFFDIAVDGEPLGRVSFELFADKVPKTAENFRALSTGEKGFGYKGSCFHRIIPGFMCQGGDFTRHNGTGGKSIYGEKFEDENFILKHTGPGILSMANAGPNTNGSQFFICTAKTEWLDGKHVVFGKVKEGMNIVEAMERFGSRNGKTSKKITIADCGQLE
Sequence of KRAS G12D (P01116 1-169 isoform P01116-2 G12D limits assumed): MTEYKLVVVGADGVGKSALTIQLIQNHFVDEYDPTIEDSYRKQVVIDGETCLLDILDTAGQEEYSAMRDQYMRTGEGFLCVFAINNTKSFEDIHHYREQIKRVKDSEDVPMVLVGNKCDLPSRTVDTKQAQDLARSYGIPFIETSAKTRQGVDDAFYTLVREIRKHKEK
Sequence of KRAS G12D (P62937 whole entry): as the sequence (P62937 whole entry) above
Sequence of KRAS G12S (P01116 1-169 isoform P01116-2 G12S limits assumed): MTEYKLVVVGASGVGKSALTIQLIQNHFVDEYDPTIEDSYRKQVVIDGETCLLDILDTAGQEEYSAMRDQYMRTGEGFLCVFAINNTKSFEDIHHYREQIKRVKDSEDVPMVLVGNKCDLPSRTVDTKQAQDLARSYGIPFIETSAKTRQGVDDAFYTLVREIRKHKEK
Sequence of KRAS G12S (P62937 whole entry): as the sequence (P62937 whole entry) above
Sequence of KRAS G12C (P01116 1-169 isoform P01116-2 G12C): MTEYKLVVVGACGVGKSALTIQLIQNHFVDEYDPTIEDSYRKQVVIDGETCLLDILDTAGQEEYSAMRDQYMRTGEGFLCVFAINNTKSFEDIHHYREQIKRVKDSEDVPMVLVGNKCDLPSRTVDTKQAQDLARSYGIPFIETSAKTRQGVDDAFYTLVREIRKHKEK
Sequence of KRAS G12C (P62937 whole entry): as the sequence (P62937 whole entry) above
Sequence of KRAS G12V (P01116 1-169 isoform P01116-2 G12V limits assumed): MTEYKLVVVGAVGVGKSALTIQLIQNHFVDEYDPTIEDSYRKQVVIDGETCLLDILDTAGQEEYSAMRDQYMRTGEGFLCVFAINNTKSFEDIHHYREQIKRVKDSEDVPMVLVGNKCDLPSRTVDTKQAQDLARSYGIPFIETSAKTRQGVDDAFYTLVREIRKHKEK
Sequence of KRAS G12V (P62937 whole entry): as the sequence (P62937 whole entry) above
Sequence of KRAS G13C (P01116 1-169 isoform P01116-2 G13C): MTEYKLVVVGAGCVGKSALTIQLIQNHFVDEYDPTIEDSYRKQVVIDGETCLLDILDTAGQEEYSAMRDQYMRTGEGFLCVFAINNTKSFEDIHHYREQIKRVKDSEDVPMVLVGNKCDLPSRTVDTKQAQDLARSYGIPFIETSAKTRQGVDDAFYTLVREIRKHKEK
Sequence of KRAS G13C (P62937 whole entry): as the sequence (P62937 whole entry) above
Sequence of NRAS G12C (P01111 whole entry G12C): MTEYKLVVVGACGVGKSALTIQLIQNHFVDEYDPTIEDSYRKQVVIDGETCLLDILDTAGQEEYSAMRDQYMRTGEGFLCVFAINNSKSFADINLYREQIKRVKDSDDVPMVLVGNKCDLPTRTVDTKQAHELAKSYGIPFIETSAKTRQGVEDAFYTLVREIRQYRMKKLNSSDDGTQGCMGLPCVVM
Sequence of NRAS G12C (P62937 whole entry): as the sequence (P62937 whole entry) above
Sequence of KRAS G13D (P01116 1-169 isoform P01116-2 G13D limits assumed): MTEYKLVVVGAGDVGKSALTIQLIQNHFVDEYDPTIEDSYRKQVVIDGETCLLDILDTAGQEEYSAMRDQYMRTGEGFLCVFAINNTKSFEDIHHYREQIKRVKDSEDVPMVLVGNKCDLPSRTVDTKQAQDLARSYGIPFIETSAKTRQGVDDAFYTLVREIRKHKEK
Sequence of KRAS G13D (P62937 whole entry): as the sequence (P62937 whole entry) above

| SMILES | IC50 (NCI-H358 (K-Ras G12C)) | IC50 (Capan-1 (K-Ras G12V)) | IC50 (NRAS G12C) | IC50 (KRAS G13C) | IC50 (KRAS G12V) | IC50 (KRAS G12S) | IC50 (KRAS G13D) | IC50 (KRAS WT) | IC50 (KRAS G12D) | IC50 (KRAS G12C) |
| --- | --- | --- | --- | --- | --- | --- | --- | --- | --- | --- |
| CCN1CC(C(=O)N(C)[C@H](C(=O)N[C@H]2Cc3cc(O)cc(c3)-c3ccc4c(c3)c(c(-c3cccnc3[C@H](C)OC)n4CC)CC(C)(C)COC(=O)[C@@H]3CCCN(N3)C2=O)C(C)C)CC1=O (some centres unmarked) [Example A248] | 10 to 100 nM | 100 to 1000 nM | 10 to 100 nM | 10 to 100 nM | 100 to 1000 nM and 10 to 100 nM | 10 to 100 nM | 100 to 1000 nM and 10 to 100 nM | 100 to 1000 nM and 10 to 100 nM | 100 to 1000 nM | 10 to 100 nM |
| CCn1c(-c2cccnc2[C@H](C)OC)c2c3cc(ccc31)-c1cc(O)cc(c1)C[C@H](NC(=O)[C@H](C(C)C)N(C)C(=O)[C@H]1CCN(C(=O)CNC)C1)C(=O)N1CCC[C@H](N1)C(=O)OCC(C)(C)C2 (atropisomer, axis not shown) [Example A120] | 1000 to 10000 nM | > 10000 nM | 10 to 100 nM | 100 to 1000 nM | 100 to 1000 nM | 10 to 100 nM | 100 to 1000 nM | 100 to 1000 nM | 10 to 100 nM | 10 to 100 nM |
| CCn1c(-c2cccnc2[C@H](C)OC)c2c3cc(ccc31)-c1cc(O)cc(c1)C[C@H](NC(=O)[C@H](C(C)C)N(C)C(=O)[C@H]1C[C@H]1C)C(=O)N1CCC[C@H](N1)C(=O)OCC(C)(C)C2 [Example A146] | 100 to 1000 nM | 100 to 1000 nM | 10 to 100 nM | 10 to 100 nM | 10 to 100 nM | 100 to 1000 nM | 100 to 1000 nM | 10 to 100 nM | 100 to 1000 nM | 10 to 100 nM |
| CCn1c(-c2cccnc2[C@H](C)OC)c2c3cc(ccc31)-c1csc(n1)C[C@H](NC(=O)[C@@H](OC(=O)N1CC(N(C)C)C1)C(C)C)C(=O)N1CCC[C@H](N1)C(=O)OCC(C)(C)C2 [Example A339] | 100 to 1000 nM | 1000 to 10000 nM | 100 to 1000 nM | 1000 to 10000 nM | 1000 to 10000 nM | 1000 to 10000 nM | 1000 to 10000 nM | 100 to 1000 nM | 1000 to 10000 nM | 100 to 1000 nM |
| CCn1c(-c2cccnc2[C@H](C)OC)c2c3cc(ccc31)-c1csc(n1)C[C@H](NC(=O)[C@H](C(C)C)N(C)C(=O)N1C[C@H]3CN(C)C[C@H]3C1)C(=O)N1CCC[C@H](N1)C(=O)OCC(C)(C)C2 [Example A313] | 10 to 100 nM | 10 to 100 nM | 10 to 100 nM | 100 to 1000 nM | 100 to 1000 nM | 100 to 1000 nM | 100 to 1000 nM | 100 to 1000 nM | 100 to 1000 nM | 100 to 1000 nM |
| CCN(C(=O)N(C)[C@H](C(=O)N[C@H]1Cc2nc(cs2)-c2ccc3c(c2)c(c(-c2cccnc2[C@H](C)OC)n3CC)CC(C)(C)COC(=O)[C@@H]2CCCN(N2)C1=O)C(C)C)C1CC1 [Example A352] | 10 to 100 nM | 100 to 1000 nM | 100 to 1000 nM | 100 to 1000 nM | 100 to 1000 nM | 100 to 1000 nM | 100 to 1000 nM | 100 to 1000 nM | 1000 to 10000 nM | 100 to 1000 nM |
| CCn1c(-c2cccnc2[C@H](C)OC)c2c3cc(ccc31)-c1csc(n1)C[C@H](NC(=O)[C@H](C(C)C)N(C)C(=O)N(C)C1CC1)C(=O)N1CCC[C@H](N1)C(=O)OCC(C)(C)C2 [Example A353] | 10 to 100 nM | 10 to 100 nM | 10 to 100 nM | 100 to 1000 nM | 100 to 1000 nM | 100 to 1000 nM | 100 to 1000 nM | 100 to 1000 nM | 100 to 1000 nM | 10 to 100 nM |
| CCn1c(-c2cccnc2[C@H](C)OC)c2c3cc(ccc31)-c1csc(n1)C[C@H](NC(=O)[C@H](C(C)C)N(C)C(=O)[C@@H]1OCC[C@@H]1C)C(=O)N1CCC[C@H](N1)C(=O)OCC(C)(C)C2 [Example A143] | 100 to 1000 nM | 100 to 1000 nM | 1000 to 10000 nM | 1000 to 10000 nM | 1000 to 10000 nM | 1000 to 10000 nM | 1000 to 10000 nM | 1000 to 10000 nM | > 10000 nM | 1000 to 10000 nM |
